Consider 6 compounds from publication PMC2894858 (PLoS ONE, 2010).

Read-outs that look alike come from different tables or passages of the source. Non-standard residues stand in square brackets, D forms with d. Residues, ends and D or L forms follow the SMILES beside them. Aib = CC(C)(N)C(=O)O

Test [1] concerns the target T1, BoNT/A LC (Clostridium botulinum, UniProt P0DPI0). The following applies: cited from earlier work; for IC50: read-out: Reported Ki (cell: IC50).
Test [2] addresses T1, BoNT/A LC. Kind of test: biochemical. In kind it is biochemical. The settings on record: for Ki range in words: pH 7.3.
Target sequence in this assay (P0DPI0 2-448 limits assumed): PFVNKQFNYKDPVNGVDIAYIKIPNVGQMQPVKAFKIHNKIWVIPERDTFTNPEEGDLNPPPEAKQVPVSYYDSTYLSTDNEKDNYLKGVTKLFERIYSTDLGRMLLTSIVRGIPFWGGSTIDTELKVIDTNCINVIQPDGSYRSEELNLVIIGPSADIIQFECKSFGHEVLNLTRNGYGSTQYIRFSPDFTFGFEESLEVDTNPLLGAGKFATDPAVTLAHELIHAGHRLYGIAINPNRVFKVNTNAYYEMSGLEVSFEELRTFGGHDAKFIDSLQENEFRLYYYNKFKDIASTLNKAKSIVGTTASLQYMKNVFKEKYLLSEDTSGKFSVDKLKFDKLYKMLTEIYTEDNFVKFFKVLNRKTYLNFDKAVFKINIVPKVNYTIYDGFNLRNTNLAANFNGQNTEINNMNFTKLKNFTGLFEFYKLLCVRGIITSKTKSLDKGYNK

For `NC(N)=NCCC[C@H](N)C(=O)NO` [ArgHX, arginine hydroxamate], the IC50 in test [1] was 60 µM.

As for `CSCC[C@H](NC(=O)[C@H](C)NC(=O)C(C)(C)NC(=O)[C@H](Cc1c[nH]c2ccccc12)NC(=O)[C@H](CCCNC(=N)N)NC(=O)[C@@H](N)CCCNC(=N)N)C(=O)N[C@@H](CC(C)C)C(N)=O` [JTH-NB72-38] (H-RRW[Aib]AML-NH2), in test [2], affinity was put at a Ki of 0.991 ± 0.117 µM and the “Ki range in words” value was “nM range”.

As to `O=C(/C=C/c1ccc(Cl)cc1)NO` [4-chlorocinnamic hydroxamate], the IC50 in test [1] is 15 µM.

As to `CSCC[C@H](NC(=O)[C@H](C)NC(=O)C(C)(C)NC(=O)[C@H](Cc1ccccc1)NC(=O)[C@H](CCCNC(=N)N)NC(=O)[C@@H](N)CCCNC(=N)N)C(=O)N[C@@H](CC(C)C)C(N)=O` [JTH-NB72-39] (H-RRF[Aib]AML-NH2), in test [2], the Ki came out at 0.638 ± 0.092 µM and the “Ki range in words” value is recorded as “nM range”.

As to QRATKM, in test [1], the Ki is 133 µM and the IC50 is 133 µM. “Fmoc-L-Leu-OH (0.124 g, 0.350 mmol, 3.50 equiv), Fmoc-L-Met-OH (0.130 g, 0.350 mmol, 3.50 equiv), Fmoc-L-Ala-OH (0.115 g, 0.350 mmol, 3.50 equiv), Fmoc-Aib-OH (0.114 g, 0.350 mmol, 3.50 equiv), Fmoc-L-1-Nal-OH (0.153 g, 0.350 mmol, 3.50 equiv), Fmoc-L-Arg(Pbf)-OH (0.227 g, 0.350 mmol, 3.50 equiv), Fmoc-L-Arg(Pbf)-OH (0.227 g, 0.350 mmol, 3.50 equiv) [JTH-NB72-35]”: in test [2], the “potency compared with I1” value is on record as “none of them were as potent as I1”, the “potency rank among the three reported PLMs” value was “the most potent of the three reported PLMs” and the “Ki range in words” value is on record as “nM range”.

As a reminder, the IC50 is the point on the concentration scale where inhibition reaches its midpoint. In general, Ki refers to a measure of affinity in units of concentration, obtained from inhibition or displacement.
